The values that follow come from patent US11420969B2 (Exonate Limited, priority 2017, dated 2022).

Where two headings read alike, the source gives them in different places. A value given as a limit tells only on which side of the number the result lay.

One assay has as its target SRPK1 (Homo sapiens, UniProt Q96SB4). In words: In vitro SRPK1 assay (Kinase-Glo). In kind it is biochemical. Background: Kinase-Glo measures the ATP left after a reaction by luminescence.
The next assay addresses T1, CYP1A2 (Homo sapiens, UniProt P05177).
T1 construct: from tissue; host or cells: human liver microsomes
T1 sequence (P05177 1-516): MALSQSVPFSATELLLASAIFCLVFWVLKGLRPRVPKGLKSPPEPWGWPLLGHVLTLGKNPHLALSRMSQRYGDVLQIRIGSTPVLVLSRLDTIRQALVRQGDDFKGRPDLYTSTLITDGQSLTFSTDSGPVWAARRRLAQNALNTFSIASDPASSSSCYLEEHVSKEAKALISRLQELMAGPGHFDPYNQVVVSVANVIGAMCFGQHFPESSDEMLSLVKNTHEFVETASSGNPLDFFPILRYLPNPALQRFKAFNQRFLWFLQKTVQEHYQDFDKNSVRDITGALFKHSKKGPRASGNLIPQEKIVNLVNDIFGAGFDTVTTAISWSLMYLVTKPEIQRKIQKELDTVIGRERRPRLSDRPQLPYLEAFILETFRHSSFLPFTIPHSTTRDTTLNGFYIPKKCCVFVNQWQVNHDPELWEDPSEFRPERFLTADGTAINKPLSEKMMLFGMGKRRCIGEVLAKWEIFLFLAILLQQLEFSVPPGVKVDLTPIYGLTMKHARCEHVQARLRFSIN
The experiment in a line: CYP inhibition assay, human liver microsomes, substrate tacrine. Particulars: human liver microsomes, 10 min incubation, LC-MS/MS; read-out: CYP Inhibition Activity (IC50/nM) CYP1A2. In kind it is in vitro ADME. The gist of the method:
(§1)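 First, compound and the substrate pool are mixed and held at 37 °C for 20 min. Next, NADPH initiates a 10 min incubation at 37 °C. Finally, cold acetonitrile quenches the reaction and supernatant goes to LC-MS/MS.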

A further assay addresses T2, CYP2D6 (Homo sapiens, UniProt P10635).
T2 construct: from tissue; host or cells: human liver microsomes
The experiment in a line: biochemical. It is filed as in vitro ADME. Put shortly:
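Read-out is LC-MS/MS of supernatant, giving % inhibition and IC50 relative to a no-inhibitor ACN/DMSO control. Compound and substrate pool were pre-incubated 20 min at 37° C with human liver microsomes (working stock 0.253 mg/mL) before a 10 min NADPH-driven reaction, quenched with cold ACN.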

For a further assay, the target named is T3, CYP3A4 (Homo sapiens, UniProt P08684).
T3 construct: from tissue; host or cells: human liver microsomes
The experiment in a line: CYP inhibition assay, human liver microsomes, substrate midazolam. In kind it is in vitro ADME. Particulars: human liver microsomes, 10 min incubation, LC-MS/MS; read-out: CYP Inhibition Activity (IC50/nM) CYP3A4. The gist of the method: as §1
A general note: Liver microsomes are vesicles of endoplasmic reticulum, rich in cytochrome P450 enzymes.

In a further assay the target is T4, CYP2C19 (Homo sapiens, UniProt P33261).
T4 construct: from tissue; host or cells: human liver microsomes
The experiment in a line: CYP inhibition assay, human liver microsomes, substrate S-mephenytoin. Conditions: human liver microsomes, 10 min incubation, LC-MS/MS; read-out: CYP Inhibition Activity (IC50/nM) CYP2C19. It is filed as in vitro ADME. The gist of the method:
as §1

A further assay deals with T5, CYP2C9 (Homo sapiens, UniProt P11712).
T5 construct: from tissue; host or cells: human liver microsomes
In words: CYP inhibition assay, human liver microsomes, substrate diclofenac. It is filed as in vitro ADME. Put shortly:
as §1

Setting [1] is: human liver microsomes, 10 min incubation, LC-MS/MS, read-out: CYP Inhibition Activity (IC50/nM) CYP2C9.

T5 sequence (P11712 whole entry): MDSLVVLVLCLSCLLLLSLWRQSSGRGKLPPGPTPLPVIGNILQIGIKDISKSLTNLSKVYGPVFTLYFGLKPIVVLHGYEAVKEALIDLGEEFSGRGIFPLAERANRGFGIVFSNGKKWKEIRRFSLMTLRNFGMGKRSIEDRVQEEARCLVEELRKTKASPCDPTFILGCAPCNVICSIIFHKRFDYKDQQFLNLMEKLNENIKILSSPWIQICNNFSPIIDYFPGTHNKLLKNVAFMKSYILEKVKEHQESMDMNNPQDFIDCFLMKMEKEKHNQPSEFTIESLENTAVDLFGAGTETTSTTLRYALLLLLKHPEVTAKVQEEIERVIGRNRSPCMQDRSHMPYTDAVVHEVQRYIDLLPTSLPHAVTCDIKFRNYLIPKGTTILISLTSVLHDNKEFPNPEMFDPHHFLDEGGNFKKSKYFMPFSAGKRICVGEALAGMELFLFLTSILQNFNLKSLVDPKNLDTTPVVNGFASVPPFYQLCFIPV
T4 sequence (P33261 whole entry): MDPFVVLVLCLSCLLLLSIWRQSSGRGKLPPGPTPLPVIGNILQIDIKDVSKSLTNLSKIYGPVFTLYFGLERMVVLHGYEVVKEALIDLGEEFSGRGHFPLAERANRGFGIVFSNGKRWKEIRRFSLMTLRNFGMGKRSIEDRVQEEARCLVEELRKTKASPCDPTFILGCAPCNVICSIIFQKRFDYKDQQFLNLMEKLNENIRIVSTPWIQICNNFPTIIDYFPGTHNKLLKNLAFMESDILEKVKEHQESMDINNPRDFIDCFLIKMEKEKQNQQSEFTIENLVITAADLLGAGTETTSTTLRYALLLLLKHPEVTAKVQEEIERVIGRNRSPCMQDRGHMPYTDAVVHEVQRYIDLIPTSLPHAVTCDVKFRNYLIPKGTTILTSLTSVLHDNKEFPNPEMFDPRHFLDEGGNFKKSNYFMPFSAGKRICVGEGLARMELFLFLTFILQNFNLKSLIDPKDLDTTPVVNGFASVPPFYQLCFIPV
Sequence of SRPK1 (Q96SB4 whole entry, species assumed): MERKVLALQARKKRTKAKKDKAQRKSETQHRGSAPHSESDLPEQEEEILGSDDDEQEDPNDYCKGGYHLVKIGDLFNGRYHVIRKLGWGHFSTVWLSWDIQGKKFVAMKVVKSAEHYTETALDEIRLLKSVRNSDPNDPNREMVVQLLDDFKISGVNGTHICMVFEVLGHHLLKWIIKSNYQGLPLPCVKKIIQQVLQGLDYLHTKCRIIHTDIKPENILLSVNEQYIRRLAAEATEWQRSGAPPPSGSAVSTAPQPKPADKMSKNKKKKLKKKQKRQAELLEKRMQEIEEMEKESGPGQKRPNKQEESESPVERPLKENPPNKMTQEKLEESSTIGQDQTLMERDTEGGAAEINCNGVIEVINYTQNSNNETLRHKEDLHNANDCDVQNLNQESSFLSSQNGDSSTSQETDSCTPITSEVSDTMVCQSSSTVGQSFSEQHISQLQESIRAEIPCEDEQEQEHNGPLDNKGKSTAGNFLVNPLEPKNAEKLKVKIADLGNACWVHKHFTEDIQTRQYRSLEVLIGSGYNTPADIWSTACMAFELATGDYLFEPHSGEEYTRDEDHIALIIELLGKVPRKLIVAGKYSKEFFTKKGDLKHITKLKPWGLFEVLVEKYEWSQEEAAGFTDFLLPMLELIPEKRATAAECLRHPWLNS
T3 sequence (P08684 whole entry): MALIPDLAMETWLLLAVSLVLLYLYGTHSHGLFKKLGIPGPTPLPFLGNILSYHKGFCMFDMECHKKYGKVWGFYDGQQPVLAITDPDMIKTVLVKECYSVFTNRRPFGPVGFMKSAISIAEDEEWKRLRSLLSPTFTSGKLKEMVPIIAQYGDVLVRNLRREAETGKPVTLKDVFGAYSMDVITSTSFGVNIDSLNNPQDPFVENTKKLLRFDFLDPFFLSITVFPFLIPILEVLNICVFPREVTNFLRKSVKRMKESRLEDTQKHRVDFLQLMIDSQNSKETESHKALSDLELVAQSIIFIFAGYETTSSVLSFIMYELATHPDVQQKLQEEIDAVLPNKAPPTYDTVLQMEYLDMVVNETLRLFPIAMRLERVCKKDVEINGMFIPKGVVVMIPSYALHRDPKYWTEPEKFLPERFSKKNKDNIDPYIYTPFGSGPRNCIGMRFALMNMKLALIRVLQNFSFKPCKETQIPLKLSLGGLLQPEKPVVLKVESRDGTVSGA
T2 sequence (P10635 whole entry): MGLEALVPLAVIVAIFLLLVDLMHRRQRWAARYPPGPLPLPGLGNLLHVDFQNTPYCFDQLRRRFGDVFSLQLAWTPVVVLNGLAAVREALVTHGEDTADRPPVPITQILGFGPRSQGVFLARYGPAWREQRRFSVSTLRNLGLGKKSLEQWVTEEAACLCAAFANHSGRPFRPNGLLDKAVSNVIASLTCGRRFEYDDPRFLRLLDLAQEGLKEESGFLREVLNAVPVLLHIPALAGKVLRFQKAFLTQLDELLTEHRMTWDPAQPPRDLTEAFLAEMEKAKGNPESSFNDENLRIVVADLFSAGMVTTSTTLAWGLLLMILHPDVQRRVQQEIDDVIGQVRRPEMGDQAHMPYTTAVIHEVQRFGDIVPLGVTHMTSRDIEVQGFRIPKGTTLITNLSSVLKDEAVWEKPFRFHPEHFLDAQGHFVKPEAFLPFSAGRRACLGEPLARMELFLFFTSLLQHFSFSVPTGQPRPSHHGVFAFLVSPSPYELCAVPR

Regarding `O=C(Nc1cc(C(F)(F)F)ccc1N1CCC2(CCCC2)CC1)c1ccc(C2CCOCC2)o1` [Example 98, N-(2-(8-azaspirol4.51decan-8-yl)-5-(trifluoromethyl)phenyl)-5-(tetrahydro-2H-pyran-4-yl)furan-2-carboxamide], the IC50 at SRPK1 is 7.5 nM; on CYP1A2, greater than 30000 nM; at CYP2D6 (human liver microsomes, 10 min incubation, LC-MS/MS, read-out: CYP Inhibition Activity (IC50/nM) CYP2D6), greater than 30000 nM; at CYP3A4, greater than 30000 nM; at CYP2C19 it was greater than 30000 nM; against CYP2C9, 18600 nM.
For the molecule `CNCC1(C)CCN(c2ccc(C(F)(F)F)cc2NC(=O)c2ccc(-c3ccncc3)o2)CC1` [Example 79, N-(2-(4-methyl-4-((methylamino)-methyl)piperidin-1-yl)-5-(trifluoromethyl)phenyl)-5-(pyridin-4-yl)furan-2-carboxamide], the IC50 is 263 nM against SRPK1; greater than 30000 nM at CYP1A2; 400 nM against CYP2D6; 4500 nM at CYP3A4; 17800 nM on CYP2C19; greater than 30000 nM at CYP2C9 (setting [1]).
Take `CC1(C)CCN(c2ccc(C(F)(F)F)cc2NC(=O)c2ccc(-c3ccncc3)o2)CC1` [Example 28, N-(2-(4,4-dimethylpiperidin-1-yl)-5-(trifluoromethyl)phenyl)-5-(pyridin-4-yl)furan-2-carboxamide]: the IC50 at SRPK1 was 15 nM; at CYP1A2 it was greater than 30000 nM; at CYP2D6, greater than 30000 nM; on CYP3A4, greater than 30000 nM; on CYP2C19 it was greater than 30000 nM; at CYP2C9 (setting [1]), greater than 30000 nM.
Turning to `O=C(Nc1cc(C2CC2)ccc1N1CCCC(O)CC1)c1ccc(C2CCOCC2)o1` (racemic) [Example 49, N-(5-cyclopropyl-2-(4-hydroxyazepan-1-yl)phenyl)-5-(tetrahydro-2H-pyran-4-yl)furan-2-carboxamide], the IC50 against SRPK1 came out at 5.2 nM; at CYP1A2, 7340 nM; on CYP2D6, 21200 nM; on CYP3A4, 17200 nM; on CYP2C19 it was 6730 nM; on CYP2C9 (setting [1]), 7250 nM.
In the case of `Cc1ccc(N2CCC(C)(C(=O)N(C)C)CC2)c(NC(=O)c2ccc(C3CCOCC3)o2)c1` [Example 87, N,N,4-trimethyl-1-(4-methyl-2-(5-(tetrahydro-2H-pyran-4-yl)furan-2-carboxamido)phenyl)piperidine-4-carboxamide], the IC50 against SRPK1 is 27 nM; at CYP1A2 it was greater than 30000 nM; against CYP2D6, greater than 30000 nM; on CYP3A4, 5900 nM; at CYP2C19, 14300 nM; at CYP2C9 (setting [1]) it was 800 nM.
Take `CC1(O)CCCN(c2ccc(Cl)cc2NC(=O)c2ccc(C3CCOCC3)o2)CC1` (racemic) [Example 41, N-(5-chloro-2-(4-hydroxy-4-methylazepan-1-yl)phenyl)-5-(tetrahydro-2H-pyran-4-yl)furan-2-carboxamide]: the IC50 was found to be 3 nM at SRPK1; 2660 nM on CYP1A2; 380 nM at CYP2D6; 2610 nM on CYP3A4; 370 nM on CYP2C19; 810 nM at CYP2C9 (setting [1]).
In the case of `CC1(O)CCN(c2ccc(C(F)F)cc2NC(=O)c2ccc(C3CCOCC3)o2)CC1` [Example 14, N-(5-(difluoromethyl)-2-(4-hydroxy-4-methyl-piperidin-1-yl)phenyl)-5-(tetrahydro-2H-pyran-4-yl)furan-2-carboxamide], the IC50 amounted to 7.3 nM at SRPK1; 19000 nM at CYP1A2; 25900 nM at CYP2D6; 7700 nM on CYP3A4; 7700 nM on CYP2C19; 3800 nM on CYP2C9 (setting [1]).
With `O=C(Nc1cc(C(F)(F)F)ccc1N1CCCC(O)CC1)c1ccc(C2CCOCC2)o1` (racemic) [Example 47, N-(2-(4-hydroxyazepan-1-yl)-5-(trifluoromethyl)-phenyl)-5-(tetrahydro-2H-pyran-4-yl)furan-2-carboxamide], the IC50 was 10.4 nM against SRPK1; greater than 30000 nM on CYP1A2; greater than 30000 nM against CYP2D6; greater than 30000 nM at CYP3A4; greater than 30000 nM at CYP2C19; greater than 30000 nM at CYP2C9 (setting [1]).
Consider `CC1(O)CCN(c2ccc(C(F)F)cc2NC(=O)c2ccc(-c3ccncc3)o2)CC1` [Example 7, N-(5-(difluoromethyl)-2-(4-hydroxy-4-methyl-piperidin-1-yl)phenyl)-5-(pyridin-4-yl)furan-2-carboxamide], for which the IC50 at SRPK1 amounted to 1.7 nM; at CYP1A2, 4000 nM; on CYP2D6, 2300 nM; at CYP3A4, 1200 nM; at CYP2C19, 1400 nM; at CYP2C9 (setting [1]), 600 nM.
In the case of `C[C@]1(O)CCN(c2ccc(C(F)(F)F)cc2NC(=O)c2ccc(-c3ccncc3)o2)C1` [Example 53, (S)-N-(2-(3-hydroxy-3-methylpyrrolidin-1-yl)-5-(trifluoromethyl)phenyl)-5-(pyridin-4-yl)furan-2-carboxamide], the IC50 is 169 nM on SRPK1; 2810 nM on CYP1A2; 10 nM at CYP2D6; 1330 nM at CYP3A4; 1190 nM at CYP2C19; 450 nM on CYP2C9 (setting [1]).
Regarding `CC1(O)CCN(c2ccc(C(F)(F)F)cc2NC(=O)c2ccc(-c3ccncc3)o2)CC1` [Example 4, N-(2-(4-hydroxy-4-methylpiperidin-1-yl)-5-(trifluoromethyl)phenyl)-5-(pyridin-4-yl)furan-2-carboxamide], the IC50 worked out at 5 nM against SRPK1; 23200 nM on CYP1A2; 3450 nM on CYP2D6; 4900 nM at CYP3A4; 2480 nM at CYP2C19; 2480 nM on CYP2C9 (setting [1]).
Regarding `COc1ccc(N2CCC(C)(CN(C)C)CC2)c(NC(=O)c2ccc(C3CCOCC3)o2)c1` [Example 92, N-(2-(4-((dimethylamino)methyl)-4-methyl-piperidin-1-yl)-5-methoxyphenyl)-5-(tetrahydro-2H-pyran-4-yl)furan-2-carboxamide], the IC50 was 150 nM on SRPK1; greater than 30000 nM at CYP1A2; 1500 nM at CYP2D6; greater than 30000 nM at CYP3A4; greater than 30000 nM at CYP2C19; 10400 nM on CYP2C9 (setting [1]).
Consider `CC1CCN(c2ccc(C(F)(F)F)cc2NC(=O)c2ccc(-c3ccncc3)o2)CC1` [Example 34, N-(2-(4-methylpiperidin-1-yl)-5-(trifluoromethyl)-phenyl)-5-(pyridin-4-yl)furan-2-carboxamide], for which the IC50 against SRPK1 stood at 422 nM; on CYP1A2, 4000 nM; at CYP2D6, 5500 nM; at CYP3A4, 7300 nM; on CYP2C19 it was 4000 nM; at CYP2C9 (setting [1]) it was 5600 nM.
Take `O=C(Nc1cc(C2CC2)ccc1N1CCC(O)CC1)c1ccc(C2CCOCC2)o1` [Example 61, N-(5-cyclopropyl-2-(4-hydroxypiperidin-1-yl)phenyl)-5-(tetrahydro-2H-pyran-4-yl)furan-2-carboxamide]: the IC50 is 1.2 nM on SRPK1; greater than 30000 nM on CYP1A2; greater than 30000 nM against CYP2D6; greater than 30000 nM at CYP3A4; 10600 nM on CYP2C19; 7600 nM on CYP2C9 (setting [1]).
With `CC1(N)CCN(c2ccc(C(F)(F)F)cc2NC(=O)c2ccc(-c3ccncc3)o2)CC1` [Example 102, N-(2-(4-amino-4-methylpiperidin-1-yl)-5-(trifluoromethyl)phenyl)-5-(pyridin-4-yl)furan-2-carboxamide], the IC50 was 44.6 nM against SRPK1; greater than 30000 nM at CYP1A2; 100 nM on CYP2D6; 3900 nM on CYP3A4; 9400 nM on CYP2C19; 14100 nM on CYP2C9 (setting [1]).
For `Cc1ccc(N2CCC(O)(CC3CC3)CC2)c(NC(=O)c2ccc(C3CCOCC3)o2)c1` [Example 70, N-(2-(4-(cyclopropylmethyl)-4-hydroxypiperidin-1-yl)-5-methylphenyl)-5-(tetrahydro-2H-pyran-4-yl)furan-2-carboxamide], the IC50 against SRPK1 was 11 nM; at CYP1A2, greater than 30000 nM; against CYP2D6, 4700 nM; on CYP3A4, 4400 nM; at CYP2C19, 2200 nM; at CYP2C9 (setting [1]) it was 1800 nM.
